# Assay results: patent publication US11702416B2, “1H-pyrrolo[2,3-c]pyridin-7(6H)-ones and pyrazolo[3,4-c]pyridin-7(6H)-ones as inhibitors of BET proteins” (Incyte Corporation, priority 2014, dated 2023)
# pIC50: −log10 of the molar value.
# Test system: KMS.12.BM cell line (human myeloma)
# Assay: KMS.12.BM cell viability assay
# Format: cell-based
# Details: 3 days, Cell Titer-GLO ATP quantitation; concentration required for 50% cell death
# Method: KMS.12.BM cell line (human myeloma) was purchased from JCRB (Osaka, Japan) and maintained in RPMI with 10% FBS culture medium. To measure the cytotoxic activity of the compounds through ATP quantitation, the KMS.12.BM cells are plated in the RPMI culture medium at 5000 cells/well/per 100 μL into a 96-well polystyrene clear black tissue culture plate (Greiner-bio-one through VWR, NJ), in the presence or absence of a concentration range of test compounds. After 3 days, […] Cell Titer-GLO Luminescent (Promega, Madison, Wis.) cell culture agent is added to each well for 10 minutes at room temperature to stabilize the luminescent signal. This determines the number of viable cells in culture based on quantitation of the ATP present, which signals the presence of metabolically active cells. Luminescence is measured with the Top Count 384 (Packard Bioscience through Perkin Elmer, Boston, Mass.). Compound inhibition is determined relative to cells cultured with no drug and the IC50 is reported as the compound concentration required for 50% cell death.
compound,measurement,value
"Cn1cc(-c2cc(S(C)(=O)=O)cc3c2NC2(CCC2)C(=O)N3)c2cc[nH]c2c1=O [Example 62, 8′-(6-methyl-7-oxo-6,7-dihydro-1H-pyrrolo[2,3-c]pyridin-4-yl)-6′-(methylsulfonyl)-1,4′-dihydro-3H-spiro[cyclobutane-1,2′-quinoxalin]-3′-one]",pIC50,≥ 6.00
